Assay results taken from patent US20250367229A1, “Treatment of Immune-Related Disorders, Kidney Disorders, Liver Disorders, Hemolytic Disorders, and Oxidative Stress-Associated Disorders Using NRH, NARH and Reduced Derivatives Thereof” (MitoPower LLC, priority 2021, published 2025).

How the values were obtained:
CD8^+ T cells = assay: Mitochondrial membrane depolarization (JC-1, flow cytometry) in CD8+ T cells; assay type: cell-based, human; settings: 250 μM, 24 hr, unstimulated or stimulated with anti-CD3 and anti-CD28 antibodies
Protocol: (§1) PBMCs (10^6 cells per test group) obtained from healthy human adult donors were unstimulated or stimulated with anti-CD3 and anti-CD28 antibodies to induce T-cell activation, in the absence or presence of 250 μM of NRH or NRH-triacetate (NRHTA). Measurements were made at 5, 15 and 24 hr after treatment.
(§2) After the indicated time of incubation, the PBMCs were stained with anti-CD3, anti-CD4 and anti-CD8 antibodies (Biolegend), JC-1 (1 μM, Thermo Fisher) and annexin V (Thermo Fisher) prior to analysis by flow cytometry. Annexin V binds to cell-surface phosphatidylserine, which is a marker for different forms of cell death including apoptosis and necrosis. The stained cells were re-suspended in phosphate-buffered saline (PBS) and acquired in a Cytek Aurora flow cytometer using a FlowJo software (v10) for analysis. About 200,000-300,000 cells were acquired in the flow cytometer for analysis. Standard procedures for spectral compensation were performed to obtain cell populations. Lymphocytes identified by forward and side scatter were gated to obtain CD3^+/CD4^+ and CD3^+/CD8^+ T-cell populations. Those T-cell populations were gated to identify the red and green signals for JC-1 aggregate and monomer, respectively, and annexin V. The percentage of cells staining green by JC-1 monomer was used to determine the percentage of cells with depolarized mitochondria. […]

red blood cells (RBCs) = assay: H2O2-induced hemolysis in vitro; assay type: cell-based; settings: 2000, 200 and 20 μM, pre-incubation 1 hr at 37° C., then H2O2 4 hr
Protocol: Individual test compounds were dissolved in 0.9% normal saline to prepare 0.3 M stock solutions. A 0.3 M stock solution was added to a 20% suspension of washed red blood cells (RBCs) in saline to obtain final concentrations of 2000 μM, 200 μM and 20 μM of the compound. The RBC suspensions were incubated with the test compound at 37° C. for 1 hr prior to testing. A 2.5% H2O2 solution was prepared fresh by dilution with normal saline and chilled at 2-8° C. before use. Each RBC suspension containing the test compound was split into tubes A and B. 250 μL of the chilled H2O2 solution was added to 250 μL of RBC suspension in each tube while maintaining the tubes in an ice bath. The tubes were incubated at 37° C. for 4 hr, and then 4.5 mL of saline or de-ionized water was added to tube A or tube B, respectively. After the tubes were incubated for 10 min, the mixture in the tubes was centrifuged at 1800 g, and then absorbance was measured in the supernatant at 540 nm. The percentage of hemolysis was calculated as: […]

CD4^+ T cells = assay: Mitochondrial membrane depolarization (JC-1, flow cytometry) in CD4+ T cells; assay type: cell-based, human; settings: 250 μM, 24 hr, unstimulated or stimulated with anti-CD3 and anti-CD28 antibodies
Protocol: as §1, §2

SMILES: NC(=O)C1=CN([C@@H]2O[C@H](CO)[C@@H](O)[C@H]2O)C=CC1 [NRH, N-(β-D-ribofuranosyl)dihydronicotinamide]
- mitochondrial membrane depolarization in CD8+ T cells (CD8^+ T cells): significantly induced
- H2O2-induced hemolysis (red blood cells (RBCs)): reduced H2O2-induced hemolysis
- mitochondrial membrane depolarization in CD4+ T cells (CD4^+ T cells): significantly induced
